Columns and labels:
[1] = tested on: nigro-striatal dopaminergic neurons of MPTP-treated mice; experiment: Effect on impaired dopaminergic neurons in MPTP-treated mice (TH immunostaining); assay type: in vivo, male C57BL/6 mice; conditions: Day 8; for Area of TH-positive immunostained fibers in striatum, mean ± S.E. / TH-positive immunostained cells in substantia nigra, mean ± S.E.: MPTP-treated mice
Description: The effect of Compound A (11-deoxy-13,14-dihydro-15-keto-16,16-difluoro-PGE1) on impaired neuron was tested. 1-methyl-4-phenyl-1,2,3,6-tetrahydropyridine hydrochloride (MPTP) was intraperitoneally administered to male C57BL/6 mice aged 10 weeks at 15 mg/kg/dose 4 times a day with an approximately 3-hour interval between doses for 2 days (experimental Day 1 and Day 2) to destroy the dopaminergic neuron in the brain. On the day following the final MPTP administration (on Day 3), some MPTP-treated mice were sacrificed to estimate the severity of degeneration and loss of nigro-striatal dopamine neurons by measuring the area of tyrosine hydroxylase (TH)-positive immunostained fibers in striatum. Other MPTP-treated mice were orally administered Compound A (11-deoxy-13,14-dihydro-15-keto-16,16-difluoro-PGE1) or the vehicle twice a day for 5 days (from Day 3 to Day 7) starting from the day following the final MPTP administration. The mice were decapitated on the day following the final administration of Compound A or the vehicle (on Day 8), and the whole brain was removed by incision of the skull, and placed into Bouin's fluid (pH 3.5-4.0). The brain section at the level of striatum (0.74 mm anterior to bregma) and substantia nigra (3.08 mm posterior to bregma) was cut out. After dehydration, the paraffin embedding of the slices was employed. Sections (about 6 μm thick) were prepared out of each of the slices at Bregma 0.74 mm and Bregma −3.08 mm, and the sections were used for TH immunostaining. The number of TH-positive immunostained cells in the right substantia nigra compacta (SNC) at Bregma −3.08 mm was counted by visual observation using an optical microscope OLYMPUS BH-2 (Olympus Corp.) with a ×20 microscope objective. For measuring the area of TH-positive immunostained fibers in striatum, an image obtained with an optical microscope OLYMPUS BH-2 (Olympus Corp.) with a ×40 microscope objective of TH-positive immunostained fibers in the right caudate putamen (CPu) at Bregma 0.74 mm was incorporated into a computer through OLYMPUS MCD-350, and the area of TH-positive fibers larger than 5 μm^2 was measured using an image analyzer Win ROOF (V5.6, Mitani Corp.), and expressed in term of an area of 1 mm^2.

[2] = tested on: full-thickness excisional wound in diabetic mice; experiment: Excisional wound healing in diabetic mice; assay type: in vivo, female diabetic (BKS.Cg-+Lepr^db/+Lepr^db/Jcl) mice; conditions: ointment, Table 3
Description: The effect of Compound A (11-deoxy-13,14-dihydro-15-keto-16,16-difluoro-PGE1) on excisional wound healing was tested. A full-thickness excisional wound (1.5×1.5 cm) was made on the back of female diabetic (BKS.Cg-+Lepr^db/+Lepr^db/Jcl) mice at the age of 12 weeks. The excisional wound was covered with the perforated film dressing. Each test ointment was put into a 1-mL disposable polypropylene syringe to which a 21G hypodermic needle is attached, and 0.1 mL of the test ointment was applied to the wound by sticking the hypodermic needle into the film dressing, which covers the excisional wound. The application was performed once a day for 21 days starting from the day when the excisional wound was made; the day when the excisional wound was made was defined as Day 1. For histological examination, the skin including the excisional wound was obtained from animals treated with each test ointment for 6 days, and was served for immunostaining with antibody against Ki67, a marker protein of proliferating cells. The outline of each excisional wound was traced before application (Day 1) and Days 6, 8, 11, 13, 15, 18, 20, and 22 of administration. The traced excisional wound area was measured with an area-line meter. […]

[3] = Compound A 0.1 mg/kg orally twice a day for 5 days
[4] = Compound A 1 mg/kg orally twice a day for 5 days

CCCCC(F)(F)C(=O)CCC1CCC(=O)C1CCCCCCC(=O)O (stereo not shown) [Compound A, 11-deoxy-13,14-dihydro-15-keto-16,16-difluoro-PGE1]
Mean area of TH-positive fibers in the striatum compared to MPTP+Vehicle (control) group ([1]; 0.1 mg/kg and 1 mg/kg groups): significantly greater mean area of TH-positive fibers in the striatum
Number of TH-positive immunostained cells in the substantia nigra, trend in words ([1]; 0.1 and 1 mg/kg orally): increased the number of TH-positive immunostained cells in the substantia nigra in a dose-dependent manner
Area of TH-positive immunostained fibers in striatum, mean ± S.E. [1, 3]: 0.0465 ± 0.0102 mm2
TH-positive immunostained cells in substantia nigra, mean ± S.E. [1, 3]: 35.2 ± 5.0 Number of cells
Area of TH-positive immunostained fibers in striatum, mean ± S.E. [1, 4]: 0.0444 ± 0.0092 mm2
TH-positive immunostained cells in substantia nigra, mean ± S.E. [1, 4]: 44.4 ± 5.0 Number of cells
Skin wound healing, in words [2]: accelerated skin wound healing
